Laboratory results taken from patent US20230107642A1 (Erasca, Inc., priority 2020, published 2023).

The molecules below were run against T1, K-Ras G12C (Homo sapiens, UniProt P01116, G12C) (assay: CAF assay (% CAF; method in Example 7, not in this part)). Conditions: 10 uM compound, 1 h incubation.
T1 construct: This protein contained 188 amino acids in total, including an N-terminal 6-Histidine tag; made in house; host or cells: E. coli BL21
Format: binding

SMILES | % CAF @ 10 uM, 1h [%]
C=CC(=O)N1CCN(c2nc(=O)n3c4c(c(-c5ccc(F)cc5)c(C(F)(F)F)cc24)SC[C@@H]3CC2CCN(C3COC3)CC2)[C@@H](C)C1 [Example 425, (S)-7-((S)-4-acryloyl-2-methylpiperazin-1-fluorophenyl)-3-((1-(oxetan-3-yl)piperidin-4-yl)methyl)-9-(trifluoromethyl)-2H-[1,4]thiazino[2,3,4-ij]quinazolin-5(3H)-one] | 94.7
C=CC(=O)N1C[C@H](C)N(c2nc(=O)n3c4c(c(-c5cc(Cl)c(F)cc5F)c(Cl)cc24)SC[C@@H]3CN2CCN(CC(F)F)CC2)C[C@H]1C [Example 495, (3S)-7-((2S,5R)-4-acryloyl-2,5-dimethylpiperazin-1-yl)-9-chloro-10-(5-chloro-2,4-difluorophenyl)-3-((4-(2,2-difluoroethyl)piperazin-1-yl)methyl)-2H-[1,4]thiazino[2,3,4-ij]quinazolin-5(3H)-one] | 50.8
C=CC(=O)N1CCN(c2nc(=O)n3c4c(c(-c5ccc(F)cc5F)c(Cl)cc24)SC[C@@H]3CC2CCN(C3COC3)CC2)[C@@H](C)C1 [Example 415, (3S)-7-((S)-4-acryloyl-2-methylpiperazin-1-yl)-9-chloro-10-(2,4-difluorophenyl)-3-((1-(oxetan-3-yl)piperidin-4-yl)methyl)-2H-[1,4]thiazino[2,3,4-ij]quinazolin-5(3H)-one] | 85.4
C=CC(=O)N1CCN(c2nc(=O)n3c4c(c(-c5ccc(F)cc5F)c(C(F)(F)F)cc24)S(=O)(=O)C[C@@H]3COC)[C@@H](C)C1 [Example 436, (3S)-7-((S)-4-acryloyl-2-methylpiperazin-1-yl)-10-(2,4-difluorophenyl)-3-(methoxymethyl)-9-(trifluoromethyl)-2H-[1,4]thiazino[2,3,4-ij]quinazolin-5(3H)-one 1,1-dioxide] | 72.5
C=CC(=O)N1CCN(c2nc(=O)n3c4c(c(-c5cc(F)c(F)cc5F)c(Cl)cc24)SC[C@@H]3CN2CCN(C3CC3)CC2)[C@@H](C)C1 [Example 520, (3S)-7-((S)-4-acryloyl-2-methylpiperazin-1-yl)-9-chloro-3-((4-cyclopropylpiperazin-1-yl)methyl)-10-(2,4,5-trifluorophenyl)-2H-[1,4]thiazino[2,3,4-ij]quinazolin-5(3H)-one] | 51.1
C=CC(=O)N1[C@H](C)CN(c2nc(=O)n3c4c(c(-c5ccc(F)cc5F)c(Cl)cc24)SC[C@H](OC)C3)C[C@@H]1C [Example 526, (3R)-8-((3S,5R)-4-acryloyl-3,5-dimethylpiperazin-1-yl)-10-chloro-11-(2,4-difluorophenyl)-3-methoxy-3,4-dihydro-2H,6H-[1,4]thiazepino[2,3,4-ij]quinazolin-6-one] | 93
C=CC(=O)N1C[C@H](C)N(c2nc(=O)n3c4c(c(-c5cc(Cl)c(F)cc5F)c(Cl)cc24)SC[C@@H]3CN2C[C@@H]3C[C@H]2CO3)C[C@H]1C [Example 500, (3S)-3-((1S,4S)-2-oxa-5-azabicyclo[2.2.1]heptan-5-ylmethyl)-7-((2S,5R)-4-acryloyl-2,5-dimethylpiperazin-1-yl)-9-chloro-10-(5-chloro-2,4-difluorophenyl)-2H-[1,4]thiazino[2,3,4-ij]quinazolin-5(3H)-one] | 50.6
C=CC(=O)N1CCN(c2nc(=O)n3c4c(c(-c5ccc(F)cc5F)c(C(F)(F)F)cc24)SC[C@@H]3COCOC)[C@@H](C)C1 (atropisomer, axis not shown) [Example 548, (3S,10R)-7-((S)-4-acryloyl-2-methylpiperazin-1-yl)-10-(2,4-difluorophenyl)-3-((methoxymethoxy)methyl)-9-(trifluoromethyl)-2,3-dihydro-5H-[1,4]thiazino[2,3,4-ij]quinazolin-5-one] | 95.7

Results, then the molecule that gave them:

% CAF @ 10 uM, 1h [%] | SMILES
97 | C=CC(=O)N1[C@H](C)CN(c2nc(=O)n3c4c(c(-c5ccc(F)cc5)c(C(F)(F)F)cc24)SC[C@H](OC)C3)C[C@@H]1C [Example 584, (R)-8-((3S,5R)-4-acryloyl-3,5-dimethylpiperazin-1-yl)-11-(4-fluorophenyl)-3-methoxy-10-(trifluoromethyl)-3,4-dihydro-2H,6H-[1,4]thiazepino[2,3,4-ij]quinazolin-6-one]
80.8 | C=CC(=O)N1[C@H](C)CN(c2nc(=O)n3c4c(c(-c5cc(Cl)c(F)cc5F)c(C(F)(F)F)cc24)SC[C@@H]3COC)C[C@@H]1C (atropisomer, axis not shown) [Example 564, (3S,10S)-7-((3S,5R)-4-acryloyl-3,5-dimethylpiperazin-1-yl)-10-(5-chloro-2,4-difluorophenyl)-3-(methoxymethyl)-9-(trifluoromethyl)-2,3-dihydro-5H-[1,4]thiazino[2,3,4-ij]quinazolin-5-one]
90.9 | C=CC(=O)N1CCN(c2nc(=O)n3c4c(c(-c5ccc(F)cc5)c(C(F)(F)F)cc24)SC[C@@H]3CN2CCn3c(nnc3C(F)(F)F)C2)[C@@H](C)C1 [Example 430, (S)-7-((S)-4-acryloyl-2-methylpiperazin-1-yl)-10-(4-fluorophenyl)-9-(trifluoromethyl)-3-((3-(trifluoromethyl)-5,6-dihydro-[1,2,4]triazolo[4,3-a]pyrazin-7(8H)-yl)methyl)-2H-[1,4]thiazino[2,3,4-ij]quinazolin-5(3H)-one]
76.4 | C=CC(=O)N1C[C@H](C)N(c2nc(=O)n3c4c(c(-c5ccc(F)cc5)c(Cl)cc24)SC[C@@H]3COC)C[C@H]1C [Example 573, (S)-7-((2S,5R)-4-acryloyl-2,5-dimethylpiperazin-1-yl)-9-chloro-10-(4-fluorophenyl)-3-(methoxymethyl)-2H-[1,4]thiazino[2,3,4-ij]quinazolin-5(3H)-one]
53.4 | C=CC(=O)N1C[C@H](C)N(c2nc(=O)n3c4c(c(-c5ccc(F)cc5F)c(Cl)cc24)SC[C@@H]3CN2CCN(C3CC3)CC2)C[C@H]1C [Example 551, (3S)-7-((2S,5R)-4-acryloyl-2,5-dimethylpiperazin-1-yl)-9-chloro-3-((4-cyclopropylpiperazin-1-yl)methyl)-10-(2,4-difluorophenyl)-2H-[1,4]thiazino[2,3,4-ij]quinazolin-5(3H)-one]

Same assay, conditions: 10 uM, 1 h; Table 3

SMILES | % CAF @ 10 uM, 1h [%]
C=CC(=O)N1C2CC(=O)CC1CN(c1nc(=O)n3c4c(c(-c5ccc(F)cc5F)c(Cl)cc14)SCC3)C2 [Example 138, 7-(9-acryloyl-7-oxo-3,9-diazabicyclo[3.3.1]nonan-3-yl)-9-chloro-10-(2,4-difluorophenyl)-2,3-dihydro-5H-[1,4]thiazino[2,3,4-ij]quinazolin-5-one] | 95.8
C=CC(=O)N1C2CN(C(C)=O)CC1CN(c1nc(=O)n3c4c(c(-c5ccc(F)cc5F)c(Cl)cc14)SCC3)C2 [Example 72] | 80.5
C=CC(=O)N1CCN(c2nc(=O)n3c4c(c(-c5cccc6c5CC(=O)N6)c(Cl)cc24)SCC3)[C@@H](C)C1 [Example 105, 7-((S)-4-acryloyl-2-methylpiperazin-1-yl)-9-chloro-10-(2-oxoindolin-4-yl)-2,3-dihydro-5H-[1,4]thiazino[2,3,4-ij]quinazolin-5-one] | 18.9
C=CC(=O)N1C[C@H](C)N(c2nc(=O)n3c4c(c(-c5ccc(F)cc5F)c(Cl)cc24)S(=O)(=O)CC3)C[C@H]1C [Example 184, 7-((2S,5R)-4-acryloyl-2,5-dimethylpiperazin-1-yl)-9-chloro-10-(2,4-difluorophenyl)-2,3-dihydro-5H-[1,4]thiazino[2,3,4-ij]quinazolin-5-one 1,1-dioxide] | 91.4
C=CC(=O)N1C2CSCC1CN(c1nc(=O)n3c4c(c(-c5ccc(F)cc5F)c(Cl)cc14)SCC3)C2 [Example 129, 7-(9-acryloyl-3-thia-7,9-diazabicyclo[3.3.1]nonan-7-yl)-9-chloro-10-(2,4-difluorophenyl)-2,3-dihydro-5H-[1,4]thiazino[2,3,4-ij]quinazolin-5-one] | 95.3
C=CC(=O)N1CCN(c2nc(=O)n3c4c(c(-c5ccc(Cl)c(F)c5)c(Cl)cc24)SCC3)[C@@H](C)C1 [Example 89, (S)-7-(4-acryloyl-2-methylpiperazin-1-yl)-9-chloro-10-(4-chloro-3-fluorophenyl)-2,3-dihydro-5H-[1,4]thiazino[2,3,4-ij]quinazolin-5-one] | 94.5
C=CC(=O)N1C2CC1CN(c1nc(=O)n3c4c(c(-c5ccc(F)cc5F)c(Cl)cc14)SCC3)C2 [Example 165, 7-(6-acryloyl-3,6-diazabicyclo[3.1.1]heptan-3-yl)-9-chloro-10-(2,4-difluorophenyl)-2,3-dihydro-5H-[1,4]thiazino[2,3,4-ij]quinazolin-5-one] | 16.9

The remaining lines, values ahead:

% CAF @ 10 uM, 1h [%] | SMILES
2.2 | C=CC(=O)N1CCN(c2nc(=O)n3c4c(c(-c5ccc(F)cc5F)c(Cl)cc24)SCC3)[C@@H](C#N)C1 [Example 173, (2R)-4-acryloyl-1-(9-chloro-10-(2,4-difluorophenyl)-5-oxo-2,3-dihydro-5H-[1,4]thiazino[2,3,4-ij]quinazolin-7-yl)piperazine-2-carbonitrile]
59.9 | C=CC(=O)N1CCN(c2nc(=O)n3c4c(c(-c5ccc(F)cc5F)c(Cl)cc24)SCC3)[C@@H](CO)C1 [Example 150, 7-((R)-4-acryloyl-2-(hydroxymethyl)piperazin-1-yl)-9-chloro-10-(2,4-difluorophenyl)-2,3-dihydro-5H-[1,4]thiazino[2,3,4-ij]quinazolin-5-one]
62.7 | C=CC(=O)N1CCN(c2nc(=O)n3c4c(c(-c5ccc(F)cc5F)c(Cl)cc24)SCC3)CC12CNC2=O (stereo not drawn) [Example 128, 7-(5-acryloyl-1-oxo-2,5,8-triazaspiro[3.5]nonan-8-yl)-9-chloro-10-(2,4-difluorophenyl)-2,3-dihydro-5H-[1,4]thiazino[2,3,4-ij]quinazolin-5-one]
60.3 | C=CC(=O)N1CCN(c2nc(=O)n3c4c(c(-c5ccc(F)c(C(=O)NC)c5)c(Cl)cc24)SCC3)[C@@H](C)C1 [Example 85, (S)-5-(7-(4-acryloyl-2-methylpiperazin-1-yl)-9-chloro-5-oxo-2,3-dihydro-5H-[1,4]thiazino[2,3,4-ij]quinazolin-10-yl)-2-fluoro-N-methylbenzamide]
